Measurements taken from paper PMC4303209, “A novel phosphatidylinositol 3-kinase (PI3K) inhibitor directs a potent FOXO-dependent, p53-independent cell cycle arrest phenotype characterized by the differential induction of a subset of FOXO-regulated genes” (Breast Cancer Research : BCR, 2014).

System: MCF-7 breast cancer cells
Assay: Microarray gene expression analysis (Agilent whole human genome 4 x 44K; compound vs DMSO, LIMMA log2 fold change)
Type: cell-based

Compound: Oc1cccc(-c2nc(N3CCOCC3)c3oc4ncccc4c3n2)c1 [PI-103]
- BCL11B log2FC (Apoptosis genes, Gene 64919): 0.237
- MRPL41 log2FC (Apoptosis genes, Gene 64975): -0.467
- PINK1 log2FC (Apoptosis genes, Gene 65018): 1.918
- PRAMEF1 log2FC (Apoptosis genes, Gene 65121): 0.050
- PRAMEF2 log2FC (Apoptosis genes, Gene 65122): 0.021
- UBE2Z log2FC (Apoptosis genes, Gene 65264): -0.420
- TMEM109 log2FC (Apoptosis genes, Gene 79073): -0.554
- CHAC1 log2FC (Apoptosis genes, Gene 79094): 0.106
- TNIP2 log2FC (Apoptosis genes, Gene 79155): -0.233
- PLEKHF1 log2FC (Apoptosis genes, Gene 79156): -0.466
- THOC6 log2FC (Apoptosis genes, Gene 79228): -0.153
- BCL2L14 log2FC (Apoptosis genes, Gene 79370): -0.153
- BIRC7 log2FC (Apoptosis genes, Gene 79444): -0.015
- ELMO3 log2FC (Apoptosis genes, Gene 79767): -0.530
- SLTM log2FC (Apoptosis genes, Gene 79811): 0.713
- ZC3H12A log2FC (Apoptosis genes, Gene 80149): -1.248
- RNF34 log2FC (Apoptosis genes, Gene 80196): -0.370
- ELL3 log2FC (Apoptosis genes, Gene 80237): 1.045
- CPEB4 log2FC (Apoptosis genes, Gene 80315): 0.553
- COL18A1 log2FC (Apoptosis genes, Gene 80781): 0.023
- SGPP1 log2FC (Apoptosis genes, Gene 81537): -0.248
- SHARPIN log2FC (Apoptosis genes, Gene 81858): -0.118
- APH1B log2FC (Apoptosis genes, Gene 83464): -0.243
- RASSF5 log2FC (Apoptosis genes, Gene 83593): -0.099
- SOX7 log2FC (Apoptosis genes, Gene 83595): -0.149
- BCL2L12 log2FC (Apoptosis genes, Gene 83596): -0.182
- ITCH log2FC (Apoptosis genes, Gene 83737): 0.449
- CDCA7 log2FC (Apoptosis genes, Gene 83879): -0.061
- TATDN1 log2FC (Apoptosis genes, Gene 83940): 0.554
- TM2D1 log2FC (Apoptosis genes, Gene 83941): 0.055
- OBSCN log2FC (Apoptosis genes, Gene 84033): 0.392
- TRAF7 log2FC (Apoptosis genes, Gene 84231): -0.080
- RHBDD1 log2FC (Apoptosis genes, Gene 84236): -0.425
- TCHP log2FC (Apoptosis genes, Gene 84260): 0.283
- ZDHHC16 log2FC (Apoptosis genes, Gene 84287): -0.316
- ING5 log2FC (Apoptosis genes, Gene 84289): -0.961
- AKT1S1 log2FC (Apoptosis genes, Gene 84335): -0.610
- CARD11 log2FC (Apoptosis genes, Gene 84433): 0.185
- SYVN1 log2FC (Apoptosis genes, Gene 84447): 0.495
- ZC3H8 log2FC (Apoptosis genes, Gene 84524): 1.375
- FNDC1 log2FC (Apoptosis genes, Gene 84624): -0.079
- CARD6 log2FC (Apoptosis genes, Gene 84674): 0.035
- HINT2 log2FC (Apoptosis genes, Gene 84681): 0.122
- BEX2 log2FC (Apoptosis genes, Gene 84707): 0.833
- TNS4 log2FC (Apoptosis genes, Gene 84951): -1.157
- ATG4D log2FC (Apoptosis genes, Gene 84971): -0.288
- SCRT2 log2FC (Apoptosis genes, Gene 85508): -0.600
- WNT3A log2FC (Apoptosis genes, Gene 89780): -0.352
- FGD3 log2FC (Apoptosis genes, Gene 89846): 0.895
- UNC5A log2FC (Apoptosis genes, Gene 90249): -0.397
- BMF log2FC (Apoptosis genes, Gene 90427): 2.201
- MTDH log2FC (Apoptosis genes, Gene 92140): 0.308
- TIMM50 log2FC (Apoptosis genes, Gene 92609): -0.337
- TP53INP1 log2FC (Apoptosis genes, Gene 94241): 0.890
- EGLN2 log2FC (Apoptosis genes, Gene 112398): 0.419
- EGLN3 log2FC (Apoptosis genes, Gene 112399): -0.441
- PNMA5 log2FC (Apoptosis genes, Gene 114824): 0.611
- SLC5A11 log2FC (Apoptosis genes, Gene 115584): 0.170
- TWIST2 log2FC (Apoptosis genes, Gene 117581): -0.613
- RFFL log2FC (Apoptosis genes, Gene 117584): -0.445
- FGD4 log2FC (Apoptosis genes, Gene 121512): 0.646
- RXFP2 log2FC (Apoptosis genes, Gene 122042): -0.012
- DCUN1D3 log2FC (Apoptosis genes, Gene 123879): -0.855
- ACVR1C log2FC (Apoptosis genes, Gene 130399): 0.413
- IL31RA log2FC (Apoptosis genes, Gene 133396): 0.067
- JMY log2FC (Apoptosis genes, Gene 133746): 1.008
- UNC5D log2FC (Apoptosis genes, Gene 137970): 0.036
- DYNLL2 log2FC (Apoptosis genes, Gene 140735): -0.654
- PSMA8 log2FC (Apoptosis genes, Gene 143471): 0.074
- TICAM1 log2FC (Apoptosis genes, Gene 148022): -0.334
- BNIPL log2FC (Apoptosis genes, Gene 149428): -0.016
- ZSWIM2 log2FC (Apoptosis genes, Gene 151112): -0.00651
- DAB2IP log2FC (Apoptosis genes, Gene 153090): 0.029
- SLC5A8 log2FC (Apoptosis genes, Gene 160728): -0.019
- PTCRA log2FC (Apoptosis genes, Gene 171558): -0.229
- HIGD2A log2FC (Apoptosis genes, Gene 192286): -0.188
- FLCN log2FC (Apoptosis genes, Gene 201163): 0.778
- HIPK1 log2FC (Apoptosis genes, Gene 204851): -0.082
- UNC5B log2FC (Apoptosis genes, Gene 219699): -0.706
- RNF152 log2FC (Apoptosis genes, Gene 220441): -0.049
- FGD2 log2FC (Apoptosis genes, Gene 221472): -0.083
- MPV17L log2FC (Apoptosis genes, Gene 255027): -0.431
- TMEM23 log2FC (Apoptosis genes, Gene 259230): 0.281
- MAGI3 log2FC (Apoptosis genes, Gene 260425): 0.313
- BLOC1S2 log2FC (Apoptosis genes, Gene 282991): 0.288
- NRBP2 log2FC (Apoptosis genes, Gene 340371): -0.00243
- NANOS3 log2FC (Apoptosis genes, Gene 342977): 0.015
- AMIGO2 log2FC (Apoptosis genes, Gene 347902): 0.458
- C6orf120 log2FC (Apoptosis genes, Gene 387263): -0.573
- GDF6 log2FC (Apoptosis genes, Gene 392255): -0.024
- MYO18A log2FC (Apoptosis genes, Gene 399687): -0.274
- PRAMEF3 log2FC (Apoptosis genes, Gene 401940): -0.384
- ADIPOQ log2FC (Apoptosis genes, Gene 414149): -0.263
- PIM3 log2FC (Apoptosis genes, Gene 415116): 0.644
- LGALS7 log2FC (Apoptosis genes, Gene 653499): -0.246
- CARD9 log2FC (Apoptosis genes, Gene 728489): -0.430
- PDCD6 log2FC (Apoptosis genes, Gene 728613): -0.273
- RRN3 log2FC (Apoptosis genes, Gene 730092): 0.522
- CD24 log2FC (Apoptosis genes, Gene 100133941): 0.117
- ACVR1 log2FC (Gene 90, cell cycle genes): 0.55
- ACVR1B log2FC (Gene 91, cell cycle genes): -0.21
- ADCYAP1 log2FC (Gene 116, cell cycle genes): 0.0422
- AHR log2FC (Gene 196, cell cycle genes): 0.78
- AIF1 log2FC (Gene 199, cell cycle genes): -0.0247
- AK1 log2FC (Gene 203, cell cycle genes): -0.25
- AKT1 log2FC (Gene 207, cell cycle genes): -0.58
- AKT2 log2FC (Gene 208, cell cycle genes): -0.41
- ALOX15B log2FC (Gene 247, cell cycle genes): -0.00234
- ANK3 log2FC (Gene 288, cell cycle genes): 0.62
- ANXA1 log2FC (Gene 301, cell cycle genes): 0.80
- ANXA11 log2FC (Gene 311, cell cycle genes): -0.16
- APBB1 log2FC (Gene 322, cell cycle genes): 0.36
- APBB2 log2FC (Gene 323, cell cycle genes): -0.18
- APEX1 log2FC (Gene 328, cell cycle genes): 0.12
- BIRC2 log2FC (Gene 329, cell cycle genes): -0.34
- APP log2FC (Gene 351, cell cycle genes): 0.33
- ARF6 log2FC (Gene 382, cell cycle genes): -0.57
- RHOB log2FC (Gene 388, cell cycle genes): -0.10
- RHOC log2FC (Gene 389, cell cycle genes): -0.37
- ARL2 log2FC (Gene 402, cell cycle genes): 0.09
- ARL3 log2FC (Gene 403, cell cycle genes): 0.06
- ASNS log2FC (Gene 440, cell cycle genes): -0.39
- BACH1 log2FC (Gene 571, cell cycle genes): 0.78
- BARD1 log2FC (Gene 580, cell cycle genes): 0.34
- BBS4 log2FC (Gene 585, cell cycle genes): 0.84
- CCND1 log2FC (Gene 595, cell cycle genes): -1.53
- BCL2 log2FC (Gene 596, cell cycle genes): -0.34
- BCL2L1 log2FC (Gene 598, cell cycle genes): -0.92
- BCR log2FC (Gene 613, cell cycle genes): -0.81
- BID log2FC (Gene 637, cell cycle genes): -0.26
- BMP2 log2FC (Gene 650, cell cycle genes): -0.23
- BMP7 log2FC (Gene 655, cell cycle genes): -0.32
- DST log2FC (Gene 667, cell cycle genes): 0.55
- BRCA1 log2FC (Gene 672, cell cycle genes): 0.74
- BRDT log2FC (Gene 676, cell cycle genes): -0.0232
- BUB1 log2FC (Gene 699, cell cycle genes): 0.59
- CALM1 log2FC (Gene 801, cell cycle genes): 0.07
- CALR log2FC (Gene 811, cell cycle genes): -0.16
- CAMK2A log2FC (Gene 815, cell cycle genes): 0.03
- CAMK2D log2FC (Gene 817, cell cycle genes): 0.78
- CAMK2G log2FC (Gene 818, cell cycle genes): 0.66
- CASP2 log2FC (Gene 835, cell cycle genes): -0.76
- CAV2 log2FC (Gene 858, cell cycle genes): 0.93
- RUNX3 log2FC (Gene 864, cell cycle genes): -0.36
- CCNA2 log2FC (Gene 890, cell cycle genes): -0.08
- CCNB1 log2FC (Gene 891, cell cycle genes): -0.13
- CCNC log2FC (Gene 892, cell cycle genes): -0.10
- CCND2 log2FC (Gene 894, cell cycle genes): -1.30
- CCND3 log2FC (Gene 896, cell cycle genes): -0.73
- CCNE1 log2FC (Gene 898, cell cycle genes): -0.63
- CCNG1 log2FC (Gene 900, cell cycle genes): 0.46
- CCNG2 log2FC (Gene 901, cell cycle genes): 3.91
- CD28 log2FC (Gene 940, cell cycle genes): 0.0361
- CDC5L log2FC (Gene 988, cell cycle genes): 0.88
- CDC6 log2FC (Gene 990, cell cycle genes): -0.98
- CDC20 log2FC (Gene 991, cell cycle genes): -0.31
- CDC25A log2FC (Gene 993, cell cycle genes): -2.03
